Data on 10 molecules can be found in patent US8697722B2 (SRI International, priority 2007, dated 2014).

Where two headings read alike, the source gives them in different places.

The target of assay [1] is T1, rat α4β2 receptors (Rattus norvegicus, UniProt P09483+P12390).
T1 construct: expressed in transfected cells; host or cells: HEK cells (KXα4β2R2)
The experiment in a line: [3H]epibatidine competition binding on membranes of HEK cells transfected with rat α4β2 receptors.

Assay [2] addresses T2, rat α3β4 receptors (Rattus norvegicus, UniProt P04757+P12392).
T2 construct: expressed in transfected cells; host or cells: HEK cells (KXα3β4R2)
The experiment in a line: [3H]epibatidine competition binding on membranes of HEK cells transfected with rat α3β4 receptors.

[3] abbreviates: competition with 0.3 nM [3H]epibatidine, KXα3β4R2 HEK cell membranes, 3 h room temperature, read-out: Binding affinities α3β4 (Ki).
Where [4] appears, read: competition with 0.3 nM [3H]epibatidine, KXα4β2R2 HEK cell membranes, 3 h room temperature, read-out: Binding affinities α4β2 (Ki).
The mark [5] stands for this setting: read-out: Binding affinities α4β2 (Ki).
The mark [6] stands for this setting: read-out: Binding affinities α3β4 (Ki).

Usually Ki stands for a dissociation constant, usually derived from enzyme kinetics or from competition with a known ligand. For `CN1C2CCC1CC(N1C(=O)Cc3ccccc31)C2` (stereo not shown) [SR 16583], the figures for the Ki in assay [1] and in assay [2] (setting [3]) were greater than 10000 nM and 2790 nM, respectively.
On to `O=c1cccc2n1C[C@@H]1CNC[C@H]2C1` [Cytisine, reference compound], for which the results for the Ki in assay [1] (setting [4]) and in assay [2] (setting [3]) were 1.53 nM and 203 nM, respectively.
On to `O=C1Cc2ccccc2N1C1CC2CCCC(C1)N2` (stereo not shown) [SR 16832], for which the Ki in assay [1] was greater than 10000 nM; in assay [2] (setting [3]) it was 421 nM.
With `C1=C(c2cccnc2)CC2CC1CN2Cc1ccccc1` (stereo not shown) [SR 17004], the Ki in assay [1] (setting [5]) was determined as 1.95 nM; in assay [2], 194 nM.
`CN1C2CCCC1CC(Nc1ccccc1)C2` (stereo not shown) [SR 17011]: the figures for the Ki in assay [1] (setting [5]) and in assay [2] (setting [6]) were greater than 10000 nM and 826 nM, respectively.
With `CN1C2C=C(c3cnc4ccccc4c3)CC1CCC2` (stereo not shown) [SR 17027], the Ki in assay [1] (setting [4]) was 423 nM; in assay [2] (setting [3]), 2610 nM.
As to `C1=C(c2cnc3ccccc3c2)CC2CC1N(Cc1ccccc1)C2` (stereo not shown) [SR 17015], the Ki turned out to be 29 nM in assay [1] (setting [4]) and 2480 nM in assay [2] (setting [3]).
Molecule `CN1C2CCCC1CC(N1C(=O)Cc3ccccc31)C2` (stereo not shown) [SR 16584] came in with a Ki in assay [1] greater than 10000 nM.
Regarding `CN1C2C=C(c3cccnc3)CC1CCC2` (stereo not shown) [SR 17026], the Ki stood at 10 nM in assay [1] and 240 nM in assay [2] (setting [6]).
As for `CCOC(=O)N1C2C=C(c3cccnc3)CC1CCC2` (stereo not shown) [SR 17021], the Ki in assay [1] (setting [5]) and in assay [2] (setting [6]) was greater than 10000 nM throughout.
